Source: PubChem BioAssay (NCI)
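Here, GI50 denotes the concentration required for 50% inhibition of growth. TGI: concentration producing complete growth inhibition.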

Key:
Experiment in all cases: NCI anticancer screen, dose series, 384-well format
[1] = tested on: 786-0 renal
[2] = tested on: A498 renal
[3] = tested on: A549 NSCLC
[4] = tested on: ACHN renal
[5] = tested on: BT-549 breast
[6] = tested on: CAKI-1 renal
[7] = tested on: CCRF-CEM leukemia
[8] = tested on: COLO 205 colon
[9] = tested on: DU-145 prostate
[10] = tested on: EKVX NSCLC
[11] = tested on: HCC-2998 colon
[12] = tested on: HCT-116 colon
[13] = tested on: HCT-15 colon
[14] = tested on: HL-60(TB) leukemia
[15] = tested on: HOP-62 NSCLC
[16] = tested on: HOP-92 NSCLC
[17] = tested on: HS 578T breast
[18] = tested on: HT29 colon
[19] = tested on: IGROV1 ovarian
[20] = tested on: K-562 leukemia
[21] = tested on: KM12 colon
[22] = tested on: LOX IMVI melanoma
[23] = tested on: M14 melanoma
[24] = tested on: MALME-3M melanoma
[25] = tested on: MCF7 breast
[26] = tested on: MDA-MB-231 breast
[27] = tested on: MDA-MB-435 melanoma
[28] = tested on: MDA-MB-468 breast
[29] = tested on: MOLT-4 leukemia
[30] = tested on: NCI-H226 lung
[31] = tested on: NCI-H23 lung
[32] = tested on: NCI-H322M lung
[33] = tested on: NCI-H460 NSCLC
[34] = tested on: NCI-H522 lung
[35] = tested on: NCI/ADR-RES ovarian
[36] = tested on: OVCAR-3 ovarian
[37] = tested on: OVCAR-4 ovarian
[38] = tested on: OVCAR-5 ovarian
[39] = tested on: OVCAR-8 ovarian
[40] = tested on: PC-3 prostate
[41] = tested on: RXF 393 renal
[42] = tested on: SF-268 CNS
[43] = tested on: SF-295 CNS
[44] = tested on: SF-539 CNS
[45] = tested on: SK-MEL-2 melanoma
[46] = tested on: SK-MEL-28 melanoma
[47] = tested on: SK-MEL-5 melanoma
[48] = tested on: SK-OV-3 ovarian
[49] = tested on: SN12C renal
[50] = tested on: SNB-19 CNS
[51] = tested on: SNB-75 CNS
[52] = tested on: SR leukemia
[53] = tested on: SW-620 colon
[54] = tested on: T-47D breast
[55] = tested on: TK-10 renal
[56] = tested on: U251 glioblastoma
[57] = tested on: UACC-257 melanoma
[58] = tested on: UACC-62 melanoma
[59] = tested on: UO-31 renal

`Cc1nc(N2CCC3(CC2)CO[C@@H](C)[C@H]3N)c(CO)nc1Sc1ccnc(N)c1Cl` was tested. Which GI50 [1] did it give?
The GI50 was 29.3 µM.

What about the TGI [1] of the same molecule?
Its TGI is over 100 µM.

What about the GI50 [2] of the same molecule?
The GI50 was 1.08 µM.

What about the TGI [2] of the same molecule?
Its TGI is over 100 µM.

What about the GI50 [3] of the same molecule?
The GI50 was 97 µM.

What about the TGI [3] of the same molecule?
Its TGI is over 100 µM.

What about the GI50 [4] of the same molecule?
Its GI50 is 2.03 µM.

And the TGI [4]?
Its TGI is over 100 µM.

And the GI50 [5]?
The GI50 was 17 µM.

And the TGI [5]?
Its TGI is over 100 µM.

What about the GI50 [6] of the same molecule?
The GI50 was 0.414 µM.

What about the TGI [6] of the same molecule?
Its TGI is over 100 µM.

And the GI50 [7]?
Its GI50 is 24.5 µM.

What about the TGI [7] of the same molecule?
The TGI was 60.2 µM.

And the GI50 [8]?
The GI50 was 41.8 µM.

And the TGI [8]?
The TGI was over 100 µM.

What about the GI50 [9] of the same molecule?
The GI50 was 97.5 µM.

What about the TGI [9] of the same molecule?
Its TGI is over 100 µM.

What about the GI50 [10] of the same molecule?
The GI50 was 3.13 µM.

What about the TGI [10] of the same molecule?
Its TGI is 92.3 µM.

What about the GI50 [11] of the same molecule?
The GI50 was 35.5 µM.

What about the TGI [11] of the same molecule?
The TGI was 95 µM.

What about the GI50 [12] of the same molecule?
The GI50 was 37.1 µM.

And the TGI [12]?
The TGI was over 100 µM.

And the GI50 [13]?
The GI50 was 69.3 µM.

What about the TGI [13] of the same molecule?
The TGI was over 100 µM.

And the GI50 [14]?
The GI50 was 15.8 µM.

What about the TGI [14] of the same molecule?
Its TGI is 29.5 µM.

And the GI50 [15]?
The GI50 was 54 µM.

What about the TGI [15] of the same molecule?
Its TGI is over 100 µM.

And the GI50 [16]?
Its GI50 is 0.115 µM.

What about the TGI [16] of the same molecule?
The TGI was 12.4 µM.

And the GI50 [17]?
The GI50 was 39.4 µM.

What about the TGI [17] of the same molecule?
Its TGI is over 100 µM.

And the GI50 [18]?
The GI50 was 27.5 µM.

What about the TGI [18] of the same molecule?
Its TGI is 71.8 µM.

What about the GI50 [19] of the same molecule?
The GI50 was 0.728 µM.

And the TGI [19]?
The TGI was over 100 µM.

What about the GI50 [20] of the same molecule?
The GI50 was 0.0619 µM.

What about the TGI [20] of the same molecule?
Its TGI is 15.7 µM.

What about the GI50 [21] of the same molecule?
Its GI50 is 0.321 µM.

And the TGI [21]?
The TGI was over 100 µM.

And the GI50 [22]?
The GI50 was 35.5 µM.

What about the TGI [22] of the same molecule?
Its TGI is over 100 µM.

What about the GI50 [23] of the same molecule?
Its GI50 is 21.3 µM.

What about the TGI [23] of the same molecule?
The TGI was 42.6 µM.

And the GI50 [24]?
The GI50 was 24.2 µM.

What about the TGI [24] of the same molecule?
The TGI was 54.2 µM.

And the GI50 [25]?
Its GI50 is 35.1 µM.

What about the TGI [25] of the same molecule?
Its TGI is over 100 µM.

And the GI50 [26]?
The GI50 was over 100 µM.

And the TGI [26]?
The TGI was over 100 µM.

And the GI50 [27]?
The GI50 was over 100 µM.

What about the TGI [27] of the same molecule?
The TGI was over 100 µM.

What about the GI50 [28] of the same molecule?
Its GI50 is 0.145 µM.

And the TGI [28]?
Its TGI is 1.39 µM.

What about the GI50 [29] of the same molecule?
The GI50 was 27 µM.

And the TGI [29]?
Its TGI is over 100 µM.

What about the GI50 [30] of the same molecule?
The GI50 was 0.714 µM.

And the TGI [30]?
The TGI was over 100 µM.

And the GI50 [31]?
Its GI50 is 0.0838 µM.

What about the TGI [31] of the same molecule?
The TGI was 20.6 µM.

And the GI50 [32]?
The GI50 was 0.166 µM.

And the TGI [32]?
Its TGI is over 100 µM.

And the GI50 [33]?
Its GI50 is 41.8 µM.

And the TGI [33]?
Its TGI is over 100 µM.

And the GI50 [34]?
Its GI50 is 0.044 µM.

What about the TGI [34] of the same molecule?
Its TGI is 18.5 µM.

What about the GI50 [35] of the same molecule?
Its GI50 is 17.7 µM.

What about the TGI [35] of the same molecule?
The TGI was over 100 µM.

What about the GI50 [36] of the same molecule?
The GI50 was 35.8 µM.

What about the TGI [36] of the same molecule?
Its TGI is over 100 µM.

And the GI50 [37]?
The GI50 was 46.6 µM.

What about the TGI [37] of the same molecule?
Its TGI is over 100 µM.

And the GI50 [38]?
Its GI50 is 92.7 µM.

And the TGI [38]?
The TGI was over 100 µM.

What about the GI50 [39] of the same molecule?
Its GI50 is 17.2 µM.

What about the TGI [39] of the same molecule?
Its TGI is 50.5 µM.

And the GI50 [40]?
Its GI50 is 54.4 µM.

What about the TGI [40] of the same molecule?
Its TGI is over 100 µM.

And the GI50 [41]?
The GI50 was 12.5 µM.

And the TGI [41]?
Its TGI is 41.5 µM.

And the GI50 [42]?
The GI50 was 91.6 µM.

What about the TGI [42] of the same molecule?
Its TGI is over 100 µM.

And the GI50 [43]?
Its GI50 is 79.8 µM.

And the TGI [43]?
The TGI was over 100 µM.

What about the GI50 [44] of the same molecule?
Its GI50 is 22.1 µM.

What about the TGI [44] of the same molecule?
The TGI was over 100 µM.

And the GI50 [45]?
Its GI50 is 34.7 µM.

And the TGI [45]?
The TGI was 78.1 µM.

What about the GI50 [46] of the same molecule?
The GI50 was 40.1 µM.

And the TGI [46]?
The TGI was over 100 µM.

And the GI50 [47]?
Its GI50 is 16 µM.

What about the TGI [47] of the same molecule?
Its TGI is 31.3 µM.

And the GI50 [48]?
The GI50 was 13 µM.

And the TGI [48]?
The TGI was over 100 µM.

What about the GI50 [49] of the same molecule?
Its GI50 is 8.42 µM.

What about the TGI [49] of the same molecule?
The TGI was over 100 µM.

What about the GI50 [50] of the same molecule?
The GI50 was 42.1 µM.

What about the TGI [50] of the same molecule?
Its TGI is over 100 µM.

What about the GI50 [51] of the same molecule?
Its GI50 is 13.4 µM.

And the TGI [51]?
The TGI was 94.4 µM.

What about the GI50 [52] of the same molecule?
Its GI50 is 9.08 µM.

What about the TGI [52] of the same molecule?
The TGI was 21.5 µM.

And the GI50 [53]?
Its GI50 is 54.6 µM.

What about the TGI [53] of the same molecule?
Its TGI is over 100 µM.

What about the GI50 [54] of the same molecule?
Its GI50 is 17.5 µM.

And the TGI [54]?
The TGI was 82.2 µM.

What about the GI50 [55] of the same molecule?
The GI50 was 0.819 µM.

And the TGI [55]?
Its TGI is over 100 µM.

What about the GI50 [56] of the same molecule?
Its GI50 is 15.6 µM.

What about the TGI [56] of the same molecule?
The TGI was over 100 µM.

And the GI50 [57]?
Its GI50 is 19.3 µM.

What about the TGI [57] of the same molecule?
Its TGI is 38.1 µM.

And the GI50 [58]?
Its GI50 is 31.4 µM.

What about the TGI [58] of the same molecule?
The TGI was over 100 µM.

What about the GI50 [59] of the same molecule?
Its GI50 is 11 µM.

And the TGI [59]?
Its TGI is over 100 µM.
